# Assays:
# [1] = test system: rats subjected to Li-pilo induced SE; assay: EEG patterns during lithium-pilocarpine SE (Example 1); assay type: in vivo, rat
# Description: Male Wistar rats weighing 225-250 g, provided by Janvier Breeding Center (Le Genest-St-lste, France) were housed under controlled standard conditions (light/dark cycle, 7.00 a.m.-7.00 p.m. lights on), with food and water available ad libitum. All animal experimentation was performed in accordance with the rules of the European Communities Council Directive of Nov. 24, 1986 (86/609/EEC), and the French Department of Agriculture (License No 67-97). For electrode implantation, rats were anesthetized by an i.p. injection of 2.5 mg/kg diazepam (DZP, Valium, Roche, France) and […] ketamine chlorhydrate (Imalgene 1000, Rhone Merrieux, France). Four single-contact recording electrodes were placed on the skull, over the parietal cortex, two on each side.
# All rats received lithium chloride (3 meq/kg, i.p., Sigma, St Louis, Mo., U.S.A.); about 20 h later, animals were placed into plexiglas boxes, in order to record baseline cortical EEG. Methylscopolamine bromide (1 mg/kg, s.c., Sigma) was administered to limit the peripheral effects of the convulsant. SE was induced by injecting pilocarpine hydrochloride (25 mg/kg, s.c., Sigma) 30 min after methyl-scopolamine. The bilateral EEG cortical activity was recorded during the whole duration of SE and behavioral changes were noted.
# The effects of increasing doses of the test compound were studied on 3 groups of rats. The animals of the first group received 10 mg/kg of the test compound, i.p., 1 h after the onset of SE (pilo-TC10) while the animals of groups 2 and 3 received 30 and 60 mg/kg of the test compound (pilo-TC30 and pilo-TC60), respectively.
# Another group was injected with 2 mg/kg diazepam (DZP, i.m.) at 1 h after the onset of SE. This is a standard treatment to improve animals survival after SE (pilo-DZP). The control group received saline instead of pilocarpine and the test compound (saline-saline). The pilo-test compound rats surviving SE were then injected about 10 h after the first test compound injection with a second i.p. injection of the same dose of the test compound and were maintained under a twice daily treatment with the test compound for 6 additional days. Pilo-DZP received a second injection of 1 mg/kg DZP on the day of SE at about 10 h after the first one. Thereafter, Pilo-DZP and saline-saline rats received twice daily an equivalent volume of saline.
# The effects of the test compound on the EEG and on the latency to occurrence of SRS were investigated by daily video recording of the animals for 10 h per day and the recording of the electrographic activity twice a week for 8 h.
# [2] = test system: rats subjected to li-pilo SE; assay: Quantification of cell densities 14 days after lithium-pilocarpine SE (Example 2); assay type: in vivo, rat; conditions: 14 days after SE
# Description: All rats received lithium chloride (3 meq/kg, i.p., Sigma, St Louis, Mo., U.S.A.) and about 20 h later, all animals received also methylscopolamine bromide (1 mg/kg, s.c., Sigma) that was administered to limit the peripheral effects of the convulsant. SE was induced by injecting pilocarpine hydrochloride (25 mg/kg, s.c., Sigma) 30 min after methylscopolamine. The effects of increasing doses of TC (RWJ) were studied in 5 groups of rats. […] The control group received vehicle instead of pilocarpine and TC.
# At the moment, neuronal counting is still in progress in the second group of animals studied for epileptogenesis and long-term counting and the data concerning that part of the study will not be included in the present report. For neuronal counting, animals were deeply anesthetized with […] pentobarbital (Dolethal®, Vetoquinol, Lure, France). Brains were then removed and frozen. Serial 20 μm slices were cut in a cryostat, air-dried during several days before thionine staining. […] The grid of counting was placed on a well defined area of the cerebral structure of interest and counting was carried out with a microscopic enlargement of 200- or 400-fold defined for each single cerebral structure. Cell counts were performed twice on each side of three adjacent sections for each region by a single observer unaware of the animal's treatment. The number of cells obtained in the 12 counted fields in each cerebral structure was averaged. This procedure was used to minimize the potential errors that could result from double counting leading to overestimation of cell numbers. […] Counts involved only neurons with cell bodies larger than 10 μm. Cells with small cell bodies were considered as glial cells and were not counted.
# For neuronal damage and epileptogenesis, statistical analysis between groups was performed by means of a one-way analysis of variance followed by a post-hoc Dunnett or Fisher test using the Statistica software.
compound,measurement,setting,value
NC(=O)OC[C@@H](O)c1ccccc1Cl [Formula 7],EEG activity in the cortex and the hippocampus by 6-7 h of SE,[1]; TC10-treated rats (10 mg/kg i.p.),spiking activity was still present
same,"amplitude of the EEG by 6-7 h of SE, hippocampus",[1]; TC30 rats (30 mg/kg i.p.),came back to baseline levels
same,"amplitude of the EEG by 6-7 h of SE, hippocampus and cortex (both structures)",[1]; TC60 treated rats (60 mg/kg i.p.),came back to baseline levels
same,"neuronal drop out, layer II of the dorsal piriform cortex","[2]; TC 60 mg/kg, significant vs DZP",25%
same,"damage remaining, ventral entorhinal cortex layer II",[2]; TC 90 mg/kg,4%
same,"damage remaining, ventral entorhinal cortex layers III/IV",[2]; TC 90 mg/kg,17%
same,"neuronal density as % of control levels, piriform cortex",[2]; TC 120 mg/kg,78-96%
same,"neurons surviving, all parts of the entorhinal cortex",[2]; TC 120 mg/kg,85-94%
same,"cell loss, CA1 pyramidal cell layer","[2]; TC30, 60 or 90 rats, significant vs DZP",36-47%
same,"neuronal loss, hilus of the dentate gyrus","[2]; TC120 group, not significant vs DZP",53%
same,"cell loss, CA1 pyramidal cell layer","[2]; TC120 group, significant vs DZP",12%
same,"neuronal drop out, thalamic nuclei",[2]; TC120 rats,4-19%
same,"number of neurons as % of the control level, all amygdala nuclei",[2]; TC highest dose (120 mg/kg),86-99%
same,"number of neuronal cell bodies, Amygdala, Basolateral","[2]; pilo-TC30 (30 mg/kg), n = 8",27.3 ± 4.9**°
same,"number of neuronal cell bodies, Amygdala, Medial, dorsal anterior","[2]; pilo-TC30 (30 mg/kg), n = 8",46.8 ± 5.0
same,"number of neuronal cell bodies, Amygdala, Medial, ventral posterior","[2]; pilo-TC30 (30 mg/kg), n = 8",22.3 ± 1.8
same,"number of neuronal cell bodies, Cerebral cortex, Entorhinal, layer II, dorsal","[2]; pilo-TC30 (30 mg/kg), n = 8",23.4 ± 0.6
same,"number of neuronal cell bodies, Cerebral cortex, Entorhinal, layer II, ventral","[2]; pilo-TC30 (30 mg/kg), n = 8",22.7 ± 0.9
same,"number of neuronal cell bodies, Cerebral cortex, Entorhinal, layer III/IV, dorsal","[2]; pilo-TC30 (30 mg/kg), n = 8",22.3 ± 0.5
same,"number of neuronal cell bodies, Cerebral cortex, Entorhinal, layer III/IV, ventral","[2]; pilo-TC30 (30 mg/kg), n = 8",13.2 ± 1.9
same,"number of neuronal cell bodies, Cerebral cortex, Piriform, layer II, dorsal","[2]; pilo-TC30 (30 mg/kg), n = 8",15.7 ± 2.9
same,"number of neuronal cell bodies, Cerebral cortex, Piriform, layer II, ventral","[2]; pilo-TC30 (30 mg/kg), n = 8",7.2 ± 3.8
same,"number of neuronal cell bodies, Cerebral cortex, Piriform, layer III","[2]; pilo-TC30 (30 mg/kg), n = 8",1.8 ± 1.8
same,"number of neuronal cell bodies, Hippocampus, CA1 area","[2]; pilo-TC30 (30 mg/kg), n = 8",39.3 ± 4.4**°°
same,"number of neuronal cell bodies, Hippocampus, CA3 area","[2]; pilo-TC30 (30 mg/kg), n = 8",35.7 ± 1.8
same,"number of neuronal cell bodies, Hippocampus, Hilus","[2]; pilo-TC30 (30 mg/kg), n = 8",33.0 ± 3.2
same,"number of neuronal cell bodies, Thalamus, Central medial","[2]; pilo-TC30 (30 mg/kg), n = 8",75.6 ± 7.7
same,"number of neuronal cell bodies, Thalamus, Dorsolateral, medial, dorsal","[2]; pilo-TC30 (30 mg/kg), n = 8",64.2 ± 9.3**°°
same,"number of neuronal cell bodies, Thalamus, Dorsolateral, ventral lateral","[2]; pilo-TC30 (30 mg/kg), n = 8",8.8 ± 2.8
same,"number of neuronal cell bodies, Thalamus, Mediodorsal central","[2]; pilo-TC30 (30 mg/kg), n = 8",26.9 ± 0.6
same,"number of neuronal cell bodies, Thalamus, Mediodorsal lateral","[2]; pilo-TC30 (30 mg/kg), n = 8",20.5 ± 0.7
same,"number of neuronal cell bodies, Thalamus, Mediodorsal medial","[2]; pilo-TC30 (30 mg/kg), n = 8",11.5 ± 2.5
same,"number of neuronal cell bodies, Amygdala, Basolateral","[2]; pilo-TC60 (60 mg/kg), n = 11",27.8 ± 4.3**°°
same,"number of neuronal cell bodies, Amygdala, Medial, dorsal anterior","[2]; pilo-TC60 (60 mg/kg), n = 11",58.4 ± 2.8**°
same,"number of neuronal cell bodies, Amygdala, Medial, ventral posterior","[2]; pilo-TC60 (60 mg/kg), n = 11",26.2 ± 2.9
same,"number of neuronal cell bodies, Cerebral cortex, Entorhinal, layer II, dorsal","[2]; pilo-TC60 (60 mg/kg), n = 11",23.9 ± 0.5
same,"number of neuronal cell bodies, Cerebral cortex, Entorhinal, layer II, ventral","[2]; pilo-TC60 (60 mg/kg), n = 11",23.3 ± 0.8
same,"number of neuronal cell bodies, Cerebral cortex, Entorhinal, layer III/IV, dorsal","[2]; pilo-TC60 (60 mg/kg), n = 11",23.2 ± 0.8
same,"number of neuronal cell bodies, Cerebral cortex, Entorhinal, layer III/IV, ventral","[2]; pilo-TC60 (60 mg/kg), n = 11",16.5 ± 2.2
same,"number of neuronal cell bodies, Cerebral cortex, Piriform, layer II, dorsal","[2]; pilo-TC60 (60 mg/kg), n = 11",27.5 ± 2.8**°°
same,"number of neuronal cell bodies, Cerebral cortex, Piriform, layer II, ventral","[2]; pilo-TC60 (60 mg/kg), n = 11",13.7 ± 4.2
same,"number of neuronal cell bodies, Cerebral cortex, Piriform, layer III","[2]; pilo-TC60 (60 mg/kg), n = 11",6.4 ± 2.3
same,"number of neuronal cell bodies, Hippocampus, CA1 area","[2]; pilo-TC60 (60 mg/kg), n = 11",31.9 ± 4.4**°°
same,"number of neuronal cell bodies, Hippocampus, CA3 area","[2]; pilo-TC60 (60 mg/kg), n = 11",31.6 ± 1.4
